The record followed here is publication PMC10247507 (Journal of immunology (Baltimore, Md. : 1950), 2023).

The assay deals with naïve FluNP CD4 T cells. Briefly: Activation of naïve FluNP CD4 T cells by peptide-pulsed BMDC in vitro. It counts as cell-based, mouse. The conditions noted are these: CD69, CD25, Nur77 assays, 2d in vitro.

On to “NP311–325: immunodominant, highly conserved IAV nucleoprotein (NP) epitope presented by I-A^b; parent peptide of the panel (QVYSLIRPNENPAHK)”, for which the “dose for peak responses, lower than the middle peptides (A7, K5)” value was 100 fold.
